# Test results reported in publication PMC11024016 (Pharmaceutical Research, 2024).
# What was measured:
# [1] = Maximum tolerated dose of TPT in mice; conditions: mouse, in vivo, intravenous, 5 consecutive days, authors' previous study (data not shown)
# [2] = Pharmacokinetics of unencapsulated topotecan in plasma, tumor and BM-ISF of ES-2 tumor bearing mice; format: in vivo, BALB/c nude mice; conditions: for AUC(0-inf) / Cmax / MRT / half-life: BALB/c nude, mouse, iv
# Description: (§1) Sucrose/histidine buffer and saline (Otsuka Pharmaceutical Factory, Tokushima, Japan) were used as the diluent for FF-10850 and TPT, respectively. After blood sample collection, mice were euthanized at the corresponding time points, and tumor and bone marrow tissues were collected. Plasma was obtained by centrifuging the blood samples at 800 × g for 15 min at 4 °C. Tumor tissues, placed on ice, were minced into fine pieces with scissors. Bone marrow tissues were harvested from the femur and tibia. After cutting the ends, the bones were placed in a microtube and centrifuged at 1,200 × g for 1 min at 4 °C. Unencapsulated topotecan was immediately separated from the plasma and tissue samples and processed.
# For the separation of unencapsulated topotecan in plasma, plasma samples diluted with PBS were ultracentrifuged at 200,000 × g for 1 h at 4 °C to precipitate the liposomes. The supernatants were collected as samples for measuring unencapsulated topotecan in plasma. To separate unencapsulated topotecan in tumor tissues, the tissues were minced as described and homogenized in PBS containing topotecan-d6 as an internal standard (125 mg tissue/mL PBS), with zirconia balls using Micro Smash MS-100R (Tomy Seiko, Tokyo, Japan). The homogenate was then ultracentrifuged at 200,000 × g for 1 h at 4 °C, and the supernatants were collected as samples for measuring unencapsulated topotecan in the tumor tissue. For the separation of unencapsulated topotecan in BM-ISF, a bone marrow tissue suspension was prepared by adding PBS containing topoteacan-d6 to the tissue (25 mg tissue/mL PBS) and suspending it by pipetting. After removing cellular components from the suspension by centrifugation at 1,200 × g for 3 min at 4 °C, the supernatant was collected as the BM-ISF sample. These samples were ultracentrifuged at 200,000 × g for 1 h at 4 °C, and the supernatants were collected to measure unencapsulated topotecan in the BM-ISF.
# (§2) To prepare the samples, methanol with 0.1% formic acid plus topotecan-d6 was added to plasma samples, while methanol with 0.1% formic acid was used for tumor and BM-ISF samples. The samples were thoroughly mixed and centrifuged at 11,300 × g for 3 min. The supernatants were added to an equal volume of water with 0.1% formic acid, and the mixture was injected into the liquid chromatographic–triple quadrupole mass spectrometric (LC–MS/MS) system. The ultra-performance liquid chromatography (UPLC) conditions for topotecan analysis were as follows: system, ACQUITY UPLC (Waters, Milford, MA); column, ACQUITY UPLC BEH C18 Column (1.7 µm, 2.1 mm × 50 mm, Waters); mobile phase A, 0.1% formic acid; mobile phase B, methanol with 0.1% formic acid, gradient (initial to 2.0 min, linear increase from 20 to 50% of B; 2.0 to 3.0 min, 95% B, and 3.0 to 4.0 min, 20% B); flow rate, 0.4 mL/min; column temperature, 40 °C. A Triple Quad 5500 (AB Sciex, Framingham, MA) mass spectrometer equipped with Analyst software (AB Sciex) and positive ion electrospray ionization in a multiple reaction monitoring (MRM) mode were used. Quantification was performed using MRM with the transitions of m/z at 422.0 → 377.1 for topotecan and 428.1 → 377.1 for topotecan-d6.
# (§3) Pharmacokinetic parameters, including half-life (T1/2), initial concentration at t = 0 (C0), the area under the concentration versus time curves from 0 to infinity (AUCinf), clearance (CL), mean residence time (MRT), and the volume of distribution (Vd) of total and unencapsulated topotecan in plasma, tumor tissue, and BM-ISF were analyzed using noncompartmental analysis with Phoenix WinNonlin version 8.2 pharmacokinetic software (Certara, Princeton, NJ). The AUCs were calculated using the linear up/log down rule.
# [3] = system: Ser139-phosphorylated human H2AX (γhH2AX) in the tumor; test: DNA damage in tumor (γH2AX) of ES-2 tumor-bearing mice; format: in vivo; conditions: TPT 2 mg/kg/day for 5 consecutive days
# Description: Mice in the TPT group were euthanized at 3 and 24 h after each dosing and 3, 5, and 7 days after the last dosing (n = 3). Samples were also harvested at 0.5 h after the first and last TPT dose (n = 3). Mice in the vehicle control group were administered sucrose/histidine buffer intravenously and were euthanized at 3 h, 3, 7, and 11 days post-dosing (n = 2 or 3). The levels of Ser139-phosphorylated human H2AX (γhH2AX) and total hH2AX in the tumor, as well as Ser139-phosphorylated mouse H2AX (γmH2AX) and total mH2AX in mouse bone marrow, were quantified using a previously established method.
# [4] = Pharmacokinetics of total topotecan in plasma, tumor and BM-ISF of ES-2 tumor bearing mice; format: in vivo, BALB/c nude mice; conditions: single i.v. 2 mg/kg
# Description: as §1, §2, §3
# [5] = unencapsulated topotecan, BM-ISF, single i.v. 2 mg/kg, ES-2 tumor bearing mice
# [6] = unencapsulated topotecan, plasma, single i.v. 2 mg/kg, ES-2 tumor bearing mice
# [7] = unencapsulated topotecan, tumor, single i.v. 2 mg/kg, ES-2 tumor bearing mice
# [8] = BALB/c nude, mouse, BM-ISF (bone marrow interstitial fluid), iv, BM-ISF, ES-2 tumor bearing mice
# [9] = BALB/c nude, mouse, iv, plasma, ES-2 tumor bearing mice
# [10] = BALB/c nude, mouse, iv, tumor, ES-2 tumor bearing mice
smiles,measurement,setting,value
"CC[C@@]1(O)C(=O)OCc2c1cc1n(c2=O)Cc2cc3c(CN(C)C)c(O)ccc3nc2-1 [TPT, Topotecan]",MTD at 5 days,[1],2 mg/kg/day
same,AUC(0-inf),[2]; [5],822 ng·h/mL
same,Cmax,[2]; [5],1700 ng/mL
same,MRT,[2]; [5],36.4 min
same,half-life,[2]; [5],43.7 min
same,AUC(0-inf),[2]; [6],97.3 ng·h/mL
same,Cmax,[2]; [6],198 ng/mL
same,MRT,[2]; [6],34.6 min
same,half-life,[2]; [6],26.3 min
same,Cmax,[2]; [7],646 ng/g
same,MRT,[2]; [7],62.4 min
same,half-life,[2]; [7],58.3 min
same,difference between total and unencapsulated topotecan AUCs,[2]; in plasma and each tissue,≤ 1.5 fold
same,AUCinf ratio (Tumor/BM-ISF),"[2]; unencapsulated topotecan, single i.v. 2 mg/kg, ES-2 tumor bearing mice",0.833
same,AUCinf,[2]; [7],684 ng∙h/g tissue
same,human γH2AX levels in the tumor (DNA damage),[3]; FF-10850 single i.v. 2 mg/kg,comparable DNA damage
same,time γH2AX levels remained elevated in tumor after each dose,[3],at least 24 h
same,AUC(0-inf),[4]; [8],862 ng·h/mL
same,Cmax,[4]; [8],1710 ng/mL
same,MRT,[4]; [8],39.5 min
same,half-life,"[4]; BALB/c nude, mouse, iv, BM-ISF (bone marrow interstitial fluid), ES-2 tumor bearing mice",41.4 min
same,AUC(0-inf),[4]; [9],140 ng·h/mL
same,C0,[4]; [9],406 ng/mL
same,MRT,[4]; [9],23.3 min
same,Vd,[4]; [9],5.87 L/kg
same,clearance,[4]; [9],238 mL/min/kg
same,half-life,[4]; [9],23.9 min
same,Cmax,[4]; [10],546 ng/g
same,MRT,[4]; [10],61.2 min
same,half-life,[4]; [10],55.7 min
same,AUCinf in BM-ISF relative to that in plasma,[4],6 times
same,AUCinf ratio (Tumor/BM-ISF),[4]; ES-2 tumor bearing mice,0.675
same,AUCinf,"[4]; tumor, ES-2 tumor bearing mice",582 ng∙h/g tissue
